As usually defined, the melting point is the temperature, or range, at which the solid turns liquid. The molecule `O=c1[nH]c(S)nc2c1cnn2-c1cccc(Cl)c1` displayed a melting point of 255 to 257 °C.
`CCOC(=O)c1c[nH]c2cc(F)c(F)c(F)c2c1=O` registered a melting point of 339 to 341 °C.
The figure for `O=C(O)c1cn(-c2cccc(C(F)(F)F)c2)nn1` is 149 to 151 °C; for `CCNC(=O)OCC(F)(F)F` it is 27 to 29 °C; for `Nc1ccc(N2CCC(O)CC2)cc1` it is 171 to 173 °C.
As to `CSc1nc(N)cc(O)n1`, the melting point lay in the range of 279 to 281 °C.
In turn, `CC1(c2ccc(F)c(F)c2)NC(=O)NC1=O` (stereo unspecified) had a melting point of 175 to 177 °C.
In the case of `Cc1ccc(N2CCCC(Br)C2=O)cc1` (stereo unspecified), the melting point lay in the range of 96 to 98 °C.
The figure for `CC(C)(C)c1ncc(C(=O)O)s1` is 204 to 206 °C.
The figure for `NC(=O)c1ccccc1Oc1cccc(N)c1` is 129 to 131 °C; for `O=C(O)c1cc(S(=O)(=O)N2CCCCC2)ccc1N1CCCC1` it is 120 to 122 °C.
The figure for `Nn1c(S)nnc1-c1ccco1` is 207 to 209 °C; for `Cc1cc(C(=O)O)nn1-c1ccccc1` it is 182 to 184 °C.
On to `Nc1nc(Cl)ncc1[N+](=O)[O-]`, for which the melting point was 209 to 211 °C.
The figure for `CS(=O)(=O)CCn1cc(Br)cn1` is 94 to 96 °C.
The figure for `Nc1ccnn1Cc1c(Cl)cccc1Cl` is 127 to 129 °C; for `COc1ccc2[nH]c3c(c2c1)CC1(CC3)OCCO1` it is 149 to 151 °C.
The figure for `Cc1ccccc1-c1nnc(CCl)o1` is 99 to 101 °C; for `O=C(O)CCn1nnc2ccccc2c1=O` it is 195 to 197 °C; for `CCN(CC)S(=O)(=O)c1ccc(OC)c(C(=O)O)c1` it is 119 to 121 °C.
`COC(=O)c1noc(C(=O)OC)c1O` yielded a melting point of 157 to 161 °C.
To `CSCc1cc(C(=O)O)sc1C` belongs 135 to 137 °C.
The figure for `Nc1nc(Sc2ccccc2)ns1` is 154 to 156 °C; for `ClCc1nc(-c2ccc(Br)s2)no1` it is 42 to 44 °C.
`CC(=O)NCc1cccc(C(=O)O)c1` registered a melting point of 166 to 168 °C.
The molecule `Cn1c(S)nnc1-c1ccco1` showed a melting point of 179 to 181 °C.
With `O=C(O)CSc1nnc(-c2ccc(Cl)cc2)o1`, the melting point fell in the range of 154 to 156 °C.
The figure for `Nc1ccc(Sc2ccc(Cl)cc2)cc1` is 60 to 62 °C; for `CCC(NC(=O)OC(C)(C)C)(C(N)=O)C(C)C` (stereo unspecified) it is 157 to 159 °C.
The figure for `Cc1cccc(OCC(=O)NN)c1` is 109 to 111 °C.
To `Brc1ccc2c(c1)c1cc(Br)ccc1n2CC1CO1` (stereo unspecified) belongs 142 to 144 °C; to `Cn1cc(C(=O)O)c(-c2ccccc2)n1`, 204 to 206 °C.
As to `Cc1cc([N+](=O)[O-])c(S(=O)(=O)Cl)cc1C`, the melting point lay within 79 to 81 °C.
To `O=Cc1ccc(-c2ccc([N+](=O)[O-])cc2Cl)o1` belongs 136 to 138 °C; to `O=C(O)c1cc(C2CC2)nc2ccc(Cl)cc12`, 211 to 213 °C.
The figure for `Nc1ccc(CN2CCC(CO)CC2)cc1` is 165 to 167 °C; for `CN1CC(=O)N(c2cccc([N+](=O)[O-])c2)C1=O` it is 144 to 146 °C; for `Clc1ccc(Cl)c(-c2cc[nH]n2)c1` it is 143 to 145 °C.
`Cc1c(C(=O)O)oc2cc3c(cc12)CCC3`: the melting point is 265 to 267 °C.
To `COc1ccc(CNC(=O)CCl)cc1C(=O)O` belongs 133 to 135 °C; to `CC(O)Cc1nc2ccccc2s1` (stereo unspecified), 84 to 86 °C; to `Cc1ccc(C)c(C(=O)c2cccc(S(C)(=O)=O)c2)c1`, 89 to 91 °C.
To `Cc1cc(F)c(S(N)(=O)=O)cc1F` belongs 132 to 134 °C; to `Cc1ccc(CC(=O)c2ccc(C)cc2)cc1`, 100 to 102 °C.
The figure for `Cc1cc(NC(=O)C(C)Cl)no1` (stereo unspecified) is 132 to 134 °C.
Regarding `Cn1c(S)nc2ccccc21`, the melting point was in the range of 190 to 194 °C.
To `NC(=O)C1CCN(CC(=O)c2ccc(Cl)cc2)CC1` belongs 164 to 166 °C; to `O=C(O)C=Cc1cnc2ccccc2n1`, 233 to 235 °C; to `Nc1ncc(C(O)(C(F)(F)F)C(F)(F)F)s1`, 184 to 186 °C.
The molecule `O=C(CCl)Nc1ccccc1I` displayed a melting point of 38 to 40 °C.
For `COc1ccc2c(O)c(C(=O)O)cnc2c1`, the melting point lay within 269 to 271 °C.
The figure for `Cc1ccc2cccc(C(=O)O)c2n1` is 152 to 154 °C; for `CCOc1cc(/C=C/C(=O)O)ccc1OCc1cccnc1` it is 201 to 203 °C.
The molecule `COc1ccc(C(=O)NNC(=O)CCl)cc1OC` showed a melting point of 173 to 175 °C.
To `COc1ncc(Br)cn1` belongs 55 to 60 °C; to `O=C(O)c1noc(-c2cc(Cl)ccc2F)n1`, 113 to 115 °C; to `Oc1ccc(CNC2CCCCC2)cc1`, 105 to 107 °C.
To `Cc1cnc2c(Cl)nccc2n1` belongs 139 to 141 °C; to `CC(Cl)C(=O)Nc1ccccc1Cl` (stereo unspecified), 63 to 65 °C.
The figure for `CC(C)n1nc(C(=O)O)c2ccccc2c1=O` is 142 to 144 °C.
`CC(Cl)C(=O)NCc1ccc(F)cc1` (stereo unspecified): the melting point is 90 to 92 °C.
The figure for `Cc1cccc(C(=O)N2CCSCC2)c1O` is 88 to 90 °C; for `Sc1nnc(-c2ccncc2)o1` it is 270 to 275 °C.
To `CN(C)S(=O)(=O)c1cccc(NC(=S)NN)c1` belongs 155 to 157 °C; to `Cc1nn(-c2ccc(F)cc2)cc1C=O`, 91 to 93 °C.
The molecule `CCOC(=O)Cc1ccc(F)cc1` registered a melting point of 29 to 31 °C.
`Cc1cc(C)c2c(N)c(C(=O)O)sc2n1` showed a melting point of 145 to 147 °C.
`O=c1oc2ccccc2n1CCO`: the melting point fell in the range of 104 to 106 °C.
To `CN(CCC(N)=S)C(=O)OC(C)(C)C` belongs 79 to 81 °C; to `COC1CC(C(=O)O)N(C(=O)OC(C)(C)C)C1` (stereo unspecified), 79 to 81 °C.
To `CC(=O)NCCc1ccc(C(=O)C(C)Cl)cc1` (stereo unspecified) belongs 85 to 89 °C; to `Cc1ccc(C)n1CC(=O)O`, 99 to 101 °C.
To `O=C(O)C1(c2ccc(Br)cc2)CCOCC1` belongs 195 to 197 °C; to `CC(C(=O)O)n1nnc(-c2ccccc2)n1` (stereo unspecified), 143 to 145 °C; to `CCOC(=O)c1c(-c2ccccc2)csc1NC(=O)C(C)Cl` (stereo unspecified), 250 to 252 °C.
Regarding `NC(=O)c1ccc(N=C=S)cc1`, the melting point lay in the range of 189 to 191 °C.
Consider `CN(Cc1ccccc1)S(N)(=O)=O`, for which the melting point fell in the range of 92 to 94 °C.
To `O=C(O)c1ccc(C2CCCOC2)cc1` (stereo unspecified) belongs 166 to 168 °C.
Molecule `O=Cc1cc(F)cc(F)c1` returned a melting point of 17 to 19 °C.
To `O=C(NNC(=O)C(Cl)Cl)c1ccccc1` belongs 184 to 186 °C.
In the case of `Cc1ccnc(Cl)c1O`, the melting point was 97 to 99 °C.
For the molecule `O=C1CN(C2CCCC2)C(=O)N1`, the melting point lay in the range of 148 to 150 °C.
The figure for `OCCNCc1cccc(OCc2ccccc2Cl)c1` is 49 to 50 °C; for `Cc1ccc(C(=O)C2CC2)cc1` it is 47 to 49 °C.
The figure for `Cc1cc(N)nn1-c1ccc(F)cc1F` is 120 to 122 °C; for `O=C1CCCc2c(Cl)sc(Cl)c21` it is 37 to 39 °C.
The figure for `CC(=O)CC(=O)Nc1ccc(NC(=O)C2CC2)cc1` is 183 to 185 °C; for `O=C(O)C=CC1CCCCC1` it is 54 to 56 °C; for `CC(Nc1ccc(Cl)cc1Cl)C(=O)O` (stereo unspecified) it is 146 to 148 °C.
`CC(C)CC1NC(C(=O)O)CS1` (stereo unspecified) gave a melting point of 159 to 161 °C.
To `O=C(CCl)NCc1cccc(NC(=O)C2CC2)c1` belongs 175 to 177 °C; to `CC(Cl)C(=O)Nc1cccc(I)c1` (stereo unspecified), 94 to 96 °C.
To `O=C(O)C1CCCN(C(=O)CCOc2ccccc2)C1` (stereo unspecified) belongs 171 to 173 °C; to `CCS(=O)(=O)CCOc1ccc(S(=O)(=O)Cl)cc1`, 92 to 94 °C; to `NC(=NO)c1cccnc1N1CCCCC1`, 149 to 151 °C.
The figure for `CC(=O)N1CCc2cc(NC(=O)CCl)ccc21` is 233 to 235 °C.
The molecule `COc1ccc2cc(C(C)Cl)ccc2c1` (stereo unspecified) had a melting point of 82 to 84 °C.
Molecule `O=C(O)c1ccc(Cl)c(S(=O)(=O)N2CCCCC2)c1` displayed a melting point of 218 to 220 °C.
The molecule `O=C(NC1CC1)c1cc(S)nc2ccccc12` showed a melting point of 301 to 303 °C.
The figure for `NNc1cncc(Cl)n1` is 137 to 139 °C; for `Cc1ccc(-c2nnc(N)s2)c(C)c1` it is 180 to 182 °C; for `O=C(c1ccc(F)cc1)c1ncccn1` it is 128 to 130 °C.
The figure for `Nc1ccc2c(c1)CCC(=O)N2Cc1ccc(Cl)cc1` is 142 to 144 °C.
`Cc1nc(S)c(C#N)cc1C(=O)Nc1ccccc1` registered a melting point of 201 to 203 °C.
For the molecule `CN(C)c1cc(N)ccn1`, the melting point was in the range of 146 to 148 °C.
The figure for `O=C(O)c1cc2c(s1)-c1ccccc1OC2` is 236 to 238 °C; for `COc1cc(NC(=O)C2CCCCC2)c(C(=O)O)cc1OC` it is 155 to 157 °C; for `CNc1cc(C(=O)OC)ccc1[N+](=O)[O-]` it is 137 to 139 °C.
To `Cc1c(N)cc(C(N)=O)cc1F` belongs 188 to 190 °C.
The figure for `CCN1CCc2nc3ccccc3c(C(=O)O)c2C1` is 278 to 280 °C; for `N#Cc1ccc(CS(N)(=O)=O)cc1` it is 154 to 156 °C; for `CC1(c2c(F)cccc2F)CC1C(=O)O` (stereo unspecified) it is 113 to 115 °C.
As for `O=C(O)c1nnn(-c2ccccc2)c1C1CC1`, the melting point was 174 to 176 °C.
The figure for `CSCc1cc(C(=O)O)ccc1F` is 119 to 121 °C; for `O=C(O)C1CCCN(S(=O)(=O)c2ccc(F)cc2)C1` (stereo unspecified) it is 156 to 160 °C.
On to `COc1c(Cl)cc(C(=O)O)cc1Cl`, for which the melting point lay within 152 to 154 °C.
The figure for `O=C(O)c1ccn(-c2ccc(Cl)cc2Cl)n1` is 179 to 181 °C; for `CNC(=O)c1ccc(S(=O)(=O)Cl)cc1` it is 125 to 130 °C; for `O=Cc1cn2cc(Cl)ccc2n1` it is 183 to 185 °C.
To `CC(=O)c1cnn(C)c1` belongs 51 to 53 °C.
Regarding `CCn1c(=O)cc(Cl)[nH]c1=O`, the melting point lay within 210 to 212 °C.

The values are drawn from a melting point compilation (Tetko et al.).
